What was measured:
[1] = tested on: KURAMOCHI (Ovarian Carcinoma); assay: combination Emax (second highest fraction inhibited in the dose matrix, 72 h); higher = more inhibition; extreme values may be limits of the assay
In short: (§1)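 Cell lines in DMEM/F12 or RPMI with 10% FBS were plated in 1536-well plates, held 24 hours at 37°C, 5% CO2, then given two-drug dose matrices for 72 hours (DMSO typically 0.2%). Viability was read by CellTiter-Glo 2.0 luminescence and scaled as inhibition from 0 (vehicle wells) to 1 (blank wells). Combination Emax is the second-highest inhibition in the matrix; Bliss excess is observed combination effect minus expected EA + EB − EA·EB, EA and EB being single-agent effects.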

42-MG-BA (Glioblastoma) = assay: as above
In short: as §1

[2] = tested on: LB831-BLC (Bladder Carcinoma); assay: as above
In short: as §1

[3] = tested on: UM-UC-3 (Bladder Carcinoma); assay: as above
In short: as §1

[4] = tested on: HCC-78 (Lung Adenocarcinoma); assay: as above
In short: as §1

NOS-1 (Osteosarcoma) = assay: as above
In short: as §1

[5] = tested on: CAL-148 (Breast Carcinoma); assay: as above
In short: as §1

NB10 (Neuroblastoma) = assay: as above
In short: as §1

[6] = tested on: SNU-5 (Gastric Carcinoma); assay: as above
In short: as §1

[7] = tested on: RO82-W-1 (Thyroid Gland Carcinoma); assay: as above
In short: as §1

[8] = tested on: HCC1806 (Breast Carcinoma); assay: as above
In short: as §1

[9] = tested on: Ramos-2G6-4C10 (Burkitt's Lymphoma); assay: as above
In short: as §1

[10] = tested on: KP-1N (Pancreatic Carcinoma); assay: as above
In short: as §1

[11] = tested on: EC-GI-10 (Esophageal Squamous Cell Carcinoma); assay: as above
In short: as §1

[12] = tested on: LB831-BLC (Bladder Carcinoma); assay: Bliss excess, mean over the matrix (fraction); higher = more synergy
In short: as §1

[13] = tested on: Calu-3 (Lung Adenocarcinoma); assay: as above
In short: as §1

[14] = tested on: HCC-78 (Lung Adenocarcinoma); assay: as above
In short: as §1

[15] = tested on: LNCaP-Clone-FGC (Prostate Carcinoma); assay: as above
In short: as §1

AGS (Gastric Carcinoma) = assay: as above
In short: as §1

[16] = tested on: SNU-5 (Gastric Carcinoma); assay: as above
In short: as §1
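Throughout, for Bliss excess, mean over the matrix: after 72 h of two-drug dosing.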

| SMILES | combination Emax [1] | combination Emax (42-MG-BA (Glioblastoma)) | combination Emax [2] | combination Emax [3] | combination Emax [4] | combination Emax (NOS-1 (Osteosarcoma)) | combination Emax [5] | combination Emax (NB10 (Neuroblastoma)) | combination Emax [6] | combination Emax [7] | combination Emax [8] | combination Emax [9] | combination Emax [10] | combination Emax [11] | Bliss excess [12] | Bliss excess [13] | Bliss excess [14] | Bliss excess [15] | Bliss excess (AGS (Gastric Carcinoma)) | Bliss excess [16] |
| --- | --- | --- | --- | --- | --- | --- | --- | --- | --- | --- | --- | --- | --- | --- | --- | --- | --- | --- | --- | --- |
| Cc1c2c(nn1C)CSCc1cc(n(C)n1)CSc1cc(c3ccccc3c1)OCCCc1c(C(=O)O)n(C)c3c-2c(Cl)ccc13 [AZD5991] + C[C@@H]1COCCN1C2=NC(=NC(=C2)C3(CC3)[S@](=N)(=O)C)C4=C5C=CNC5=NC=C4 [AZD6738] (first compound max 1 µM, 7x7, partner max 10 µM) | 0.634 | 1 | 0.439 | 0.401 | 0.544 | 1 | 0.942 | 0.86 | 0.942 | 0.525 | 0.961 | 1 | 0.279 | 0.819 | 0.0641 | 0.0119 | 0.0028 | 0.0123 | 0.0629 | -0.0075 |
| CN(CCO)CC[C@H](CSc1ccccc1)Nc1ccc(S(=O)(=O)NC(=O)c2ccc(N3CCC([C@@H](O)c4ccccc4-c4ccc(Cl)cc4)CC3)cc2)cc1S(=O)(=O)C(F)(F)F [AZD4320] + C[C@@H]1COCCN1C2=NC(=NC(=C2)C3(CC3)[S@](=N)(=O)C)C4=C5C=CNC5=NC=C4 [AZD6738] (first compound max 1 µM, 7x7, partner max 10 µM) | 0.687 | 0.675 | 0.381 | 0.7 | 0.637 | 0.914 | 0.978 | 0.689 | 0.978 | 0.785 | 0.972 | 0.946 | 0.269 | 0.647 | -0.0415 | -0.006 | -0.0564 | -0.0328 | -0.0162 | 0.0061 |
| Cc1c2c(nn1C)CSCc1cc(n(C)n1)CSc1cc(c3ccccc3c1)OCCCc1c(C(=O)O)n(C)c3c-2c(Cl)ccc13 [AZD5991] + CCN(CCO)CCCOc1ccc2c(Nc3cc(CC(=O)Nc4cccc(F)c4)[nH]n3)ncnc2c1 [AZD2811] (first compound max 1 µM, 7x7, partner max 1 µM) | 0.376 | 1 | 0.444 | 0.266 | 0.31 | 0.809 | 1 | 0.405 | 0.204 | 0.274 | 0.776 | 1 | 0.234 | 0.891 | 0.0076 | -0.0024 | 0.0209 | 0.0567 | 0.0374 | 0.0306 |
| NC1(C(=O)N[C@@H](CCO)c2ccc(Cl)cc2)CCN(c2ncnc3[nH]ccc23)CC1 [Capivasertib] + Cn1cnc2c(F)c(Nc3ccc(Br)cc3Cl)c(C(=O)NOCCO)cc21 [Selumetinib] (first compound max 10 µM, 7x7, partner max 10 µM) | 0.444 | 0.737 | 0.545 | 0.533 | 0.295 | 0.388 | 0.981 | 0.428 | 0.756 | 0.277 | 0.595 | 0.435 | 0.393 | 0.927 | -0.133 | 0.0295 | -0.009 | -0.0143 | 0.0697 | 0.0345 |
| CC(=O)Nc1cccc(-n2c(=O)n(C3CC3)c(=O)c3c(Nc4ccc(I)cc4F)n(C)c(=O)c(C)c32)c1 [Trametinib] + Cc1nc(-c2cn3c(n2)-c2ccc(-c4cnn(C(C)(C)C(N)=O)c4)cc2OCC3)n(C(C)C)n1 [Taselisib] (first compound max 1 µM, 7x7, partner max 10 µM) | 0.703 | 0.971 | 0.77 | 0.773 | 0.712 | 0.928 | 0.986 | 0.921 | 0.829 | 0.41 | 0.798 | 0.121 | 0.644 | 1 | 0.0977 | 0.162 | 0.0913 | -0.0056 | 0.122 | 0.141 |
| Cc1cc2ncnn2cc1Nc1ncc2c(n1)n(C1CCOCC1)c(=O)n2C [AZD7648] + CCN(CCO)CCCOc1ccc2c(Nc3cc(CC(=O)Nc4cccc(F)c4)[nH]n3)ncnc2c1 [AZD2811] (first compound max 10 µM, 7x7, partner max 1 µM) | 0.238 | 0.472 | 0.258 | 0.298 | 0.342 | 0.232 | 0.911 | 0.335 | 0.354 | 0.358 | 0.281 | 0.789 | 0.134 | 0.44 | -0.0477 | 0.002 | -0.014 | -0.003 | 0.0641 | 0.0543 |
| NC1(C(=O)N[C@@H](CCO)c2ccc(Cl)cc2)CCN(c2ncnc3[nH]ccc23)CC1 [Capivasertib] + CCN(CCO)CCCOc1ccc2c(Nc3cc(CC(=O)Nc4cccc(F)c4)[nH]n3)ncnc2c1 [AZD2811] (first compound max 10 µM, 7x7, partner max 1 µM) | 0.332 | 0.782 | 0.482 | 0.298 | 0.349 | 0.355 | 1 | 0.452 | 0.499 | 0.215 | 0.378 | 0.807 | 0.288 | 0.754 | -0.0179 | 0.0092 | -0.015 | 0.006 | 0.0129 | -0.0103 |
